The values that follow come from patent US20080207614A1, “QUINAZOLINE DERIVATIVES FOR THE TREATMENT AND PREVENTION OF DIABETES AND OBESITY” (SK CHEMICALS CO., LTD., priority 2004, published 2008).

For one experiment, the system named is AMPK. In words: Measurement of AMPK activity by Western blot in C2C12 cells. Type of experiment: cell-based. Details: key to AMPK activity (degree of phosphorylation of serine-79 and threonine-172): fold increase in threonine-172 phosphorylation; AMPK activity (degree of phosphorylation of serine-79): unit not given here. The conditions noted are these: 10 μM for 50 minutes; for AMPK activity (degree of phosphorylation of serine-79 and threonine-172): no superscript: Western blot of serine-79 and threonine-172 phosphorylation; for AMPK activity (class: degree of phosphorylation of threonine-172): strong/mild/weak; for AMPK activity (degree of phosphorylation of serine-79): footnote a: Western blot of serine-79 phosphorylation. The method, boiled down: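 Differentiated C2C12 cells were exposed to test material at 10 μM for 50 minutes, then lysed. AMPK activity was taken from Western blots of Thr-172 phosphorylation and acetyl CoA carboxylase Ser-79 phosphorylation, with ERK as loading reference. Thr-172 rise was graded strong (≥3-fold), mild (1-3-fold) or weak (<1-fold).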
(In general: A western blot detects proteins with antibodies after separation by electrophoresis.)

The subject of the next experiment is C2C12 muscle cells. As to the kind of experiment: Analysis of glucose absorption (2-deoxyglucose) in differentiated C2C12 muscle cells. In kind it is cell-based. Particulars: test materials 10 μM, times relative to control group. In outline:
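Differentiated C2C12 myotubes (6 days in 1% serum) held 3 h in KRB with 5 mM glucose, then given test material at 10 μM. After 30 min, 0.2 μCi 2-deoxyglucose added for 20 min; uptake measured by radioactive counting of NaOH lysates.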

Molecules are shown by their SMILES.

Turning to `CCCc1nc(NCc2cccc(OC)c2OC)c2ccccc2n1` [Compound 397, (2,3-Dimethoxybenzyl)-(2-propylquinazolino-4-yl)-amine], the “AMPK activity (degree of phosphorylation of serine-79 and threonine-172)” value in the experiment with AMPK is listed as 6.5. Also, the Glucose absorption with C2C12 muscle cells turned out to be 1.3.

For the molecule `c1ccc(CCNc2nc(C3CCCCC3)nc3ccccc23)cc1` [Compound 203, (2-Cyclohexylquinazolino-4-yl)-phenethylamine], in the experiment with AMPK, the “AMPK activity (degree of phosphorylation of serine-79 and threonine-172)” value was determined as 3.9; the “AMPK activity (class: degree of phosphorylation of threonine-172)” value is given as “strong (“strong” means that the degree of phosphorylation of threonine-172 increased by 3 times or more)”. In the experiment with C2C12 muscle cells, this molecule came in with a Glucose absorption of 2.0.

Consider `c1ccc(-c2nc(NCCN3CCCCC3)c3ccccc3n2)cc1` [Compound 101, (2-Phenylquinazolino-4-yl)-(2-piperidino-1-ylethyl)-amine], for which the “AMPK activity (class: degree of phosphorylation of threonine-172)” value in the experiment with AMPK was “weak (“weak” means that the degree of phosphorylation of threonine-172 increased by less than 1 time)”. For the same molecule, the Glucose absorption in the experiment with C2C12 muscle cells is recorded as 1.5.

Turning to `Fc1ccc(CCNc2nc(-c3ccccc3)nc3ccccc23)cc1F` [Compound 128, [2-(3,4-Difluorophenyl)-ethyl]-(2-phenylquinazolino-4-yl)-amine], in the experiment with AMPK, the “AMPK activity (degree of phosphorylation of serine-79 and threonine-172)” value is reported as 1.7; the “AMPK activity (class: degree of phosphorylation of threonine-172)” value is given as “strong (“strong” means that the degree of phosphorylation of threonine-172 increased by 3 times or more)”. The molecule also showed a Glucose absorption in the experiment on C2C12 muscle cells of 2.3.

Take `COc1ccc(CNc2nc(C(C)c3ccccc3)nc3ccccc23)c(OC)c1` (stereo not drawn) [Compound 379, (2,4-Dimethoxybenzyl)-[2-(1-phenylethyl)-quinazolino-4-yl]-amine]: in the experiment on AMPK, the “AMPK activity (degree of phosphorylation of serine-79 and threonine-172)” value is reported as 6.1. The same molecule showed a Glucose absorption in the experiment with C2C12 muscle cells of 1.1.

For the molecule `CC(Nc1nc(C(Cl)(Cl)Cl)nc2ccccc12)c1ccccc1` (stereo not drawn) [Compound 5, (1-Phenylethyl)-(2-trichloromethylquinazolino-4-yl)-amine], the “AMPK activity (degree of phosphorylation of serine-79)” value in the experiment with AMPK is reported as 4.7^a. In addition, the Glucose absorption in the experiment on C2C12 muscle cells is given as 0.9.

Regarding `ClC(Cl)(Cl)c1nc(NC2CC2)c2ccccc2n1` [Compound 3, Cyclopropyl-(2-trichloromethylquinazolino-4-yl)-amine], the “AMPK activity (degree of phosphorylation of serine-79)” value in the experiment with AMPK is listed as 3.3^a. Also, in the experiment with C2C12 muscle cells, the Glucose absorption was 1.2.

On to `CC(C)c1nc(NCCc2cccc(F)c2)c2ccccc2n1` [Compound 184, [2-(3-Fluorophenyl)-ethyl]-(2-isopropylquinazolino-4-yl)-amine], for which, in the experiment on AMPK, the “AMPK activity (degree of phosphorylation of serine-79 and threonine-172)” value worked out at 1.9; the “AMPK activity (class: degree of phosphorylation of threonine-172)” value is on record as “strong (“strong” means that the degree of phosphorylation of threonine-172 increased by 3 times or more)”. Moreover, the Glucose absorption in the experiment with C2C12 muscle cells is given as 3.2.

As to `COc1ccc(CNc2nc(N3CCOCC3)nc3ccccc23)c(OC)c1` [Compound 293, (2,4-Dimethoxybenzyl)-(2-morpholino-4-ylquinazolino-4-yl)-amine], in the experiment with AMPK, the “AMPK activity (degree of phosphorylation of serine-79 and threonine-172)” value is given as 0.1. This molecule showed a Glucose absorption in the experiment on C2C12 muscle cells of 0.6.

Take `CCOc1cc2ncnc(NCCCN3CCOCC3)c2cc1OCC` [Compound 15, (6,7-Diethoxyquinazolino-4-yl)-(3-morpholino-4-ylpropyl)-amine]: the “AMPK activity (degree of phosphorylation of serine-79)” value in the experiment on AMPK was 2.3^a. This molecule also returned a Glucose absorption in the experiment with C2C12 muscle cells of 0.8.

As to `CC(c1ccccc1)c1nc(NCc2ccc3c(c2)OCO3)c2ccccc2n1` (stereo not drawn) [Compound 374, Benzo[1,3]dioxol-5-ylmethyl-[2-(1-phenylethyl)-quinazolino-4-yl]-amine], the “AMPK activity (degree of phosphorylation of serine-79 and threonine-172)” value with AMPK amounted to 1.9. For the same molecule, the Glucose absorption in the experiment with C2C12 muscle cells worked out at 1.1.

Consider `Clc1cccc(CCNc2nc(-c3ccccc3)nc3ccccc23)c1` [Compound 126, [2-(3-Chlorophenyl)-ethyl]-(2-phenylquinazolino-4-yl)-amine], for which, in the experiment with AMPK, the “AMPK activity (degree of phosphorylation of serine-79 and threonine-172)” value was determined as 2.0; the “AMPK activity (class: degree of phosphorylation of threonine-172)” value is on record as “strong (“strong” means that the degree of phosphorylation of threonine-172 increased by 3 times or more)”. For the same molecule, the Glucose absorption in the experiment on C2C12 muscle cells amounted to 2.1.

On to `COc1cc(OC)c(CNc2nc(C(C)C)nc3ccccc23)c(OC)c1` [Compound 327, (2-Isopropylquinazolino-4-yl)-(2,4,6-trimethoxybenzyl)-amine], for which, in the experiment on AMPK, the “AMPK activity (degree of phosphorylation of serine-79 and threonine-172)” value was found to be 4.4. The molecule further had a Glucose absorption in the experiment on C2C12 muscle cells of 1.3.

`CC(C)Nc1nc(C(Cl)(Cl)Cl)nc2ccccc12` [Compound 2, Isopropyl-(2-trichloromethylquinazolino-4-yl)-amine]: the “AMPK activity (degree of phosphorylation of serine-79)” value with AMPK is 4.2^a. The molecule further displayed a Glucose absorption in the experiment with C2C12 muscle cells of 1.3.

For the molecule `COc1ccc(CNc2nc(N3CCCC3)nc3ccccc23)c(OC)c1` [Compound 291, (2,4-Dimethoxybenzyl)-(2-pyrrolidino-1-ylquinazolino-4-yl)-amine], the “AMPK activity (degree of phosphorylation of serine-79 and threonine-172)” value with AMPK is 1.5. Besides, in the experiment with C2C12 muscle cells, the Glucose absorption is on record as 0.8.

`COc1ccc(OC)c(CNc2nc(C(OC)c3ccccc3)nc3ccccc23)c1` (stereo not drawn) [Compound 369, (2,5-Dimethoxybenzyl)-[2-(methoxyphenylmethyl)-quinazolino-4-yl]-amine]: the “AMPK activity (degree of phosphorylation of serine-79 and threonine-172)” value in the experiment on AMPK was found to be 4.5. In addition, the Glucose absorption in the experiment with C2C12 muscle cells came out at 1.1.

Turning to `COc1ccc(CNc2nc(C)nc3ccccc23)cc1` [Compound 165, (4-Methoxybenzyl)-(2-methylquinazolino-4-yl)-amine], in the experiment on AMPK, the “AMPK activity (degree of phosphorylation of serine-79 and threonine-172)” value amounted to 5.2; the “AMPK activity (class: degree of phosphorylation of threonine-172)” value was “strong (“strong” means that the degree of phosphorylation of threonine-172 increased by 3 times or more)”. This molecule registered a Glucose absorption in the experiment with C2C12 muscle cells of 2.5.

Turning to `COc1ccc(OC)c(CNc2nc(N3CCCCC3)nc3ccccc23)c1` [Compound 296, (2,5-Dimethoxybenzyl)-(2-piperidino-1-ylquinazolino-4-yl)-amine], the “AMPK activity (degree of phosphorylation of serine-79 and threonine-172)” value in the experiment on AMPK was found to be 1.0. Further, in the experiment with C2C12 muscle cells, the Glucose absorption is 0.9.

`Clc1ccc(CCNc2nc(-c3ccccc3)nc3ccccc23)cc1` [Compound 123, [2-(4-chlorophenyl)-ethyl]-(2-phenylquinazolino-4-yl)-amine]: in the experiment with AMPK, the “AMPK activity (degree of phosphorylation of serine-79 and threonine-172)” value is reported as 2.3; the “AMPK activity (class: degree of phosphorylation of threonine-172)” value is recorded as “strong (“strong” means that the degree of phosphorylation of threonine-172 increased by 3 times or more)”. The same molecule yielded a Glucose absorption with C2C12 muscle cells of 2.1.

Regarding `FC(F)(F)c1ccc(CNc2nc(-c3ccccc3)nc3ccccc23)cc1` [Compound 139, (2-Phenylquinazolino-4-yl)-(4-trifluoromethylbenzyl)-amine], in the experiment on AMPK, the “AMPK activity (degree of phosphorylation of serine-79 and threonine-172)” value amounted to 2.1; the “AMPK activity (class: degree of phosphorylation of threonine-172)” value is listed as “strong (“strong” means that the degree of phosphorylation of threonine-172 increased by 3 times or more)”. Moreover, in the experiment on C2C12 muscle cells, the Glucose absorption worked out at 2.5.

Regarding `Cc1nc(NCc2ccc3c(c2)OCO3)c2ccccc2n1` [Compound 170, Benzo[1,3]dioxol-5-ylmethyl-(2-methylquinazolino-4-yl)-amine], in the experiment with AMPK, the “AMPK activity (degree of phosphorylation of serine-79 and threonine-172)” value is 8.8; the “AMPK activity (class: degree of phosphorylation of threonine-172)” value was “strong (“strong” means that the degree of phosphorylation of threonine-172 increased by 3 times or more)”. In addition, the Glucose absorption with C2C12 muscle cells came out at 2.4.

Regarding `COc1ccc(CNc2nc(C(C)c3ccccc3)nc3ccccc23)cc1` (stereo not drawn) [Compound 373, (4-Methoxybenzyl)-[2-(1-phenylethyl)-quinazolino-4-yl]-amine], the “AMPK activity (degree of phosphorylation of serine-79 and threonine-172)” value with AMPK came to 2.1. In the experiment on C2C12 muscle cells, this molecule yielded a Glucose absorption of 1.1.

As for `CCSc1nc(NCc2ccc(OC)cc2)c2ccccc2n1` [Compound 25, (2-Ethylsulfanylquinazolino-4-yl)-(4-methoxybenzyl)-amine], the “AMPK activity (class: degree of phosphorylation of threonine-172)” value in the experiment with AMPK is recorded as “strong (“strong” means that the degree of phosphorylation of threonine-172 increased by 3 times or more)”. Moreover, the Glucose absorption in the experiment on C2C12 muscle cells is 2.6.

Turning to `COc1cc(OC)c(CNc2nc(C(OC)c3ccccc3)nc3ccccc23)c(OC)c1` (stereo not drawn) [Compound 370, [2-(Methoxyphenylmethyl)-quinazolino-4-yl]-(2,4,6-trimethoxybenzyl)-amine], the “AMPK activity (degree of phosphorylation of serine-79 and threonine-172)” value with AMPK was 7.7. In the experiment with C2C12 muscle cells, this molecule gave a Glucose absorption of 1.3.

With `COc1cccc(CNc2nc(C(C)C)nc3ccccc23)c1OC` [Compound 322, (2,3-Dimethoxybenzyl)-(2-isopropylquinazolino-4-yl)-amine], in the experiment on AMPK, the “AMPK activity (degree of phosphorylation of serine-79 and threonine-172)” value is listed as 1.9. The molecule also showed a Glucose absorption in the experiment on C2C12 muscle cells of 1.4.

On to `CCOc1cc2ncnc(NCc3cccc4ccccc34)c2cc1OCC` [Compound 14, (6,7-Diethoxyquinazolino-4-yl)-naphthaleno-1-ylmethylamine], for which the “AMPK activity (degree of phosphorylation of serine-79)” value in the experiment with AMPK is given as 3.6^a. Besides, the Glucose absorption with C2C12 muscle cells is given as 1.2.

On to `CC(C)(C)c1nc(NCc2ccccc2)c2ccccc2n1` [Compound 187, Benzyl-(2-tert-butylquinazolino-4-yl)-amine], for which, in the experiment on AMPK, the “AMPK activity (degree of phosphorylation of serine-79 and threonine-172)” value came out at 0.7; the “AMPK activity (class: degree of phosphorylation of threonine-172)” value is “mild (“mild” means that the degree of phosphorylation of threonine-172 increased by 1 to 3 times)”. Also, the Glucose absorption in the experiment with C2C12 muscle cells came to 2.4.
